# Compound: CC(C)(C)c1cc(NC(=O)Nc2ccc(-c3cn4c(n3)sc3cc(OCCN5CCOCC5)ccc34)cc2)no1 [Quizartinib] + CC1(C)CCC(c2ccc(Cl)cc2)=C(CN2CCN(c3ccc(C(=O)NS(=O)(=O)c4ccc(N[C@H](CCN5CCOCC5)CSc5ccccc5)c(S(=O)(=O)C(F)(F)F)c4)cc3)CC2)C1 [Navitoclax] (partner 0.5 µM)
# Assay: relative viability (nuclei count vs DMSO), 5 days (fraction); higher = more cells survive
# Settings: first compound 0.001 µM
# Procedure, shortened: (§1)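 Values are medians from duplicate plates. Each reflects relative viability, defined as the nuclei count of treated wells over that of vehicle wells. Lung cancer cell lines in 1536-well plates were pin-tool dosed one day after seeding with one drug alone or with a fixed anchor-drug dose plus five library-drug doses (not always all listed) in √10 steps, then fixed, stained and imaged at 4× after 5 days.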
row,Cell Line,relative viability
1,SK-MES-1,1.05
2,NCI-H1651,0.848
3,UMC-11,0.271
4,NCI-H1355,0.868
5,H3255,0.523
6,NCI-H647,0.77
7,LXF-289,0.804
8,LU99A,0.796
9,NCI-H2023,0.981
10,NCI-H2228,0.859
11,NCI-H1437,0.954
12,NCI-H1395,1.05
13,NCI-H2009,1.13
14,HCC-366,0.799
15,NCI-H1915,0.771
16,NCI-H2347,0.675
17,NCI-H1734,0.741
18,HCC-78,0.813

row,Cell Line,relative viability
1,COR-L 105,0.536
2,HCC-15,0.756
3,HARA,0.783
4,NCI-H1975,1.02
5,NCI-H1944,0.888
6,NCI-H2126,0.813
7,EMC-BAC-2,1.13
8,SK-LU-1,0.852
9,NCI-H2170,0.765
10,CAL-12T,1.15
11,LK-2,0.827
12,HOP-62,1
13,PC-14,1
14,NCI-H1993,0.964
15,NCI-H2405,0.912
16,NCI-H3122,0.93
17,A-427,0.94

# Same assay, conditions: first compound 0.003162 µM
row,Cell Line,relative viability
1,SK-MES-1,1.1
2,NCI-H1651,0.895
3,UMC-11,0.278
4,NCI-H1355,0.921
5,H3255,0.442
6,NCI-H647,1.11
7,LCLC-97TM1,0.669
8,LXF-289,0.961
9,LU99A,0.8
10,NCI-H2023,0.937
11,NCI-H2228,0.702
12,NCI-H1437,0.994
13,NCI-H1395,1.07
14,NCI-H2009,1.16
15,HCC-366,1.01
16,NCI-H1915,0.75
17,NCI-H2347,0.886
18,NCI-H1734,0.794

row,Cell Line,relative viability
1,HCC-78,0.868
2,COR-L 105,0.71
3,HCC-15,0.652
4,HARA,1.14
5,NCI-H1975,1.1
6,NCI-H1944,1.07
7,NCI-H2126,0.823
8,EMC-BAC-2,1.14
9,SK-LU-1,0.771
10,NCI-H2170,0.627
11,CAL-12T,1.1
12,LK-2,0.803
13,HOP-62,0.888
14,PC-14,0.892
15,NCI-H1993,0.906
16,NCI-H2405,0.858
17,NCI-H3122,0.981
18,A-427,0.881

# Same assay, conditions: first compound 0.01 µM
row,Cell Line,relative viability
1,SK-MES-1,1.35
2,NCI-H1651,0.963
3,UMC-11,0.364
4,NCI-H1355,0.912
5,H3255,0.531
6,NCI-H647,1.17
7,LCLC-97TM1,0.489
8,LXF-289,0.976
9,LU99A,0.913
10,NCI-H2023,1.04
11,NCI-H2228,0.75
12,NCI-H1437,1.04
13,NCI-H1395,1.14
14,NCI-H2009,1.22
15,HCC-366,0.957
16,NCI-H1915,0.833
17,NCI-H2347,0.91
18,NCI-H1734,0.888

row,Cell Line,relative viability
1,HCC-78,0.766
2,COR-L 105,0.907
3,HCC-15,0.665
4,HARA,1.12
5,NCI-H1975,1.19
6,NCI-H1944,1.06
7,NCI-H2126,0.882
8,EMC-BAC-2,1.31
9,SK-LU-1,0.979
10,NCI-H2170,0.715
11,CAL-12T,1.33
12,LK-2,1.09
13,HOP-62,1.16
14,PC-14,1.09
15,NCI-H1993,1.13
16,NCI-H2405,0.942
17,NCI-H3122,1.02
18,A-427,0.869

# Same assay, conditions: first compound 0.03162 µM
row,Cell Line,relative viability
1,SK-MES-1,1.13
2,NCI-H1651,0.845
3,UMC-11,0.346
4,NCI-H1355,1
5,H3255,0.661
6,NCI-H647,1.04
7,LCLC-97TM1,0.355
8,LXF-289,0.948
9,LU99A,0.776
10,NCI-H2023,0.744
11,NCI-H2228,1.08
12,NCI-H1437,0.904
13,NCI-H1395,1.59
14,NCI-H2009,1.03
15,HCC-366,1.06
16,NCI-H1915,0.822
17,NCI-H2347,0.845
18,NCI-H1734,0.788

row,Cell Line,relative viability
1,HCC-78,0.598
2,COR-L 105,0.651
3,HCC-15,0.689
4,HARA,1.14
5,NCI-H1975,1.06
6,NCI-H1944,1.08
7,NCI-H2126,0.872
8,EMC-BAC-2,1.18
9,SK-LU-1,0.72
10,NCI-H2170,0.573
11,CAL-12T,1.24
12,LK-2,0.77
13,HOP-62,1.01
14,PC-14,0.966
15,NCI-H1993,0.959
16,NCI-H2405,0.784
17,NCI-H3122,1.03
18,A-427,0.906

# Same assay, conditions: first compound 0.1 µM
row,Cell Line,relative viability
1,SK-MES-1,1.26
2,NCI-H1651,0.995
3,UMC-11,0.307
4,NCI-H1355,1
5,H3255,0.468
6,NCI-H647,1.2
7,LCLC-97TM1,0.413
8,LXF-289,0.912
9,LU99A,0.383
10,NCI-H2023,1.04
11,NCI-H2228,0.98
12,NCI-H1437,0.8
13,NCI-H1395,1.36
14,NCI-H2009,1.23
15,HCC-366,0.903
16,NCI-H1915,0.785
17,NCI-H2347,0.994
18,NCI-H1734,0.849

row,Cell Line,relative viability
1,HCC-78,0.842
2,COR-L 105,0.729
3,HCC-15,0.724
4,HARA,1.16
5,NCI-H1975,1.1
6,NCI-H1944,1.07
7,NCI-H2126,0.828
8,EMC-BAC-2,1.19
9,SK-LU-1,1.07
10,NCI-H2170,0.665
11,CAL-12T,1.32
12,LK-2,0.861
13,HOP-62,1.1
14,PC-14,0.977
15,NCI-H1993,0.793
16,NCI-H2405,1.15
17,NCI-H3122,1.02
18,A-427,0.95

# Compound: COCC[n+]1c2c(n(Cc3cnccn3)c1C)C(=O)c1ccccc1C2=O [YM155] + COc1cc2c(Oc3ccc(NC(=O)C4(C(=O)Nc5ccc(F)cc5)CC4)cc3F)ccnc2cc1OCCCN1CCOCC1 [Foretinib] (partner 0.25 µM)
# Assay: as above
# Settings: first compound 0.002 µM
# Procedure, shortened: as §1
row,Cell Line,relative viability
1,SK-MES-1,0.9
2,NCI-H1651,0.864
3,UMC-11,0.966
4,NCI-H1355,0.932
5,H3255,0.917
6,NCI-H647,1.21
7,LCLC-97TM1,0.924
8,LXF-289,1
9,LU99A,0.806
10,NCI-H2023,0.999
11,NCI-H2228,0.772
12,NCI-H1437,1.21
13,NCI-H1395,0.943
14,NCI-H2009,1.24
15,HCC-366,0.924
16,NCI-H1915,1.05
17,NCI-H2347,0.767
18,NCI-H1734,0.853

row,Cell Line,relative viability
1,HCC-78,0.53
2,COR-L 105,0.994
3,HCC-15,0.992
4,HARA,0.892
5,NCI-H1975,0.978
6,NCI-H1944,0.818
7,NCI-H2126,0.893
8,EMC-BAC-2,1.03
9,SK-LU-1,0.766
10,NCI-H2170,1
11,CAL-12T,1.14
12,LK-2,1.02
13,HOP-62,0.979
14,PC-14,0.83
15,NCI-H1993,0.659
16,NCI-H2405,1.04
17,NCI-H3122,0.923
18,A-427,1.08

# Same assay, conditions: first compound 0.006325 µM
row,Cell Line,relative viability
1,SK-MES-1,0.889
2,NCI-H1651,0.785
3,UMC-11,1.1
4,NCI-H1355,1.02
5,H3255,0.896
6,NCI-H647,1.11
7,LCLC-97TM1,0.97
8,LXF-289,1.01
9,LU99A,0.866
10,NCI-H2023,0.662
11,NCI-H2228,0.912
12,NCI-H1437,1.24
13,NCI-H1395,0.91
14,NCI-H2009,1.21
15,HCC-366,0.899
16,NCI-H1915,1.08
17,NCI-H2347,0.907
18,NCI-H1734,0.723

row,Cell Line,relative viability
1,HCC-78,0.51
2,COR-L 105,1.02
3,HCC-15,1.05
4,HARA,1.03
5,NCI-H1975,0.907
6,NCI-H1944,0.888
7,NCI-H2126,1.07
8,EMC-BAC-2,0.986
9,SK-LU-1,0.738
10,NCI-H2170,0.983
11,CAL-12T,1.16
12,LK-2,1.32
13,HOP-62,1.04
14,PC-14,0.911
15,NCI-H1993,0.709
16,NCI-H2405,1.03
17,NCI-H3122,1
18,A-427,0.984

# Same assay, conditions: first compound 0.02 µM
row,Cell Line,relative viability
1,SK-MES-1,0.921
2,NCI-H1651,0.84
3,UMC-11,1.08
4,NCI-H1355,1.06
5,H3255,0.998
6,NCI-H647,0.981
7,LCLC-97TM1,1.07
8,LXF-289,1.02
9,LU99A,0.905
10,NCI-H2023,0.767
11,NCI-H2228,0.867
12,NCI-H1437,1.26
13,NCI-H1395,0.984
14,NCI-H2009,1.09
15,HCC-366,0.951
16,NCI-H1915,1.08
17,NCI-H2347,1.38
18,NCI-H1734,0.914

row,Cell Line,relative viability
1,HCC-78,0.543
2,COR-L 105,0.848
3,HCC-15,0.888
4,HARA,0.94
5,NCI-H1975,0.933
6,NCI-H1944,0.852
7,NCI-H2126,1.25
8,EMC-BAC-2,0.966
9,SK-LU-1,0.904
10,NCI-H2170,1
11,CAL-12T,0.928
12,LK-2,1.29
13,HOP-62,1.17
14,PC-14,0.908
15,NCI-H1993,0.811
16,NCI-H2405,0.936
17,NCI-H3122,0.927
18,A-427,0.976

# Same assay, conditions: first compound 0.06325 µM
row,Cell Line,relative viability
1,SK-MES-1,0.921
2,NCI-H1651,0.603
3,UMC-11,1.12
4,NCI-H1355,0.964
5,H3255,1.07
6,NCI-H647,0.474
7,LCLC-97TM1,0.97
8,LXF-289,0.97
9,LU99A,0.884
10,NCI-H2023,0.368
11,NCI-H2228,0.708
12,NCI-H1437,0.984
13,NCI-H1395,1.01
14,NCI-H2009,0.583
15,HCC-366,1.11
16,NCI-H1915,0.963
17,NCI-H2347,0.892
